Results taken from patent publication US4843079A, “Fused heteroalkylene quinolinamines” (Hoechst-Roussel Pharmaceuticals, Inc., priority 1988, dated 1989).
Counter-ions that a name gives are not always drawn. Like-named read-outs stand apart in the source and are kept apart here.

What was measured:
acetylcholinesterase = acetylcholinesterase (Homo sapiens, UniProt P22303); assay: biochemical
[1] = tested on: scopolamine Induced Memory Deficit; assay: Dark Avoidance Assay (scopolamine-impaired memory); format: in vivo; details: mice, retested 24 hours later
Experimental: This utility of the compounds of the present invention mentioned above can also be ascertained by determining the ability of these compounds to restore cholinergically deficient memory in the Dark Avoidance Assay. In this assay mice are tested for their ability to remember an unpleasant stimulus for a period of 24 hours. A mouse is placed in a chamber that contains a dark compartment; a strong incandescent light drives it to the dark compartment, where an electric shock is administered through metal plates on the floor. The animal is removed from the testing apparatus and tested again, 24 hours later, for the ability to remember the electric shock.
If scopolamine, an anticholinergic that is known to cause memory impairment, is administered before an animal's initial exposure to the test chamber, the animal re-enters the dark compartment shortly after being placed in the test chamber 24 hours later. This effect of scopolamine is blocked by an active test compound, resulting in a greater interval before re-entry in the dark compartment.
The results for an active compound are expressed as the percent of a group of animals in which the effect of scopolamine is blocked, as manifested by an increased interval between being placed in the test chamber and re-entering the dark compartment.

[2] = photometric method of Ellman et al., read-out: IC50, Cholinesterase Inhibition

Sequence of acetylcholinesterase (P22303 32-614): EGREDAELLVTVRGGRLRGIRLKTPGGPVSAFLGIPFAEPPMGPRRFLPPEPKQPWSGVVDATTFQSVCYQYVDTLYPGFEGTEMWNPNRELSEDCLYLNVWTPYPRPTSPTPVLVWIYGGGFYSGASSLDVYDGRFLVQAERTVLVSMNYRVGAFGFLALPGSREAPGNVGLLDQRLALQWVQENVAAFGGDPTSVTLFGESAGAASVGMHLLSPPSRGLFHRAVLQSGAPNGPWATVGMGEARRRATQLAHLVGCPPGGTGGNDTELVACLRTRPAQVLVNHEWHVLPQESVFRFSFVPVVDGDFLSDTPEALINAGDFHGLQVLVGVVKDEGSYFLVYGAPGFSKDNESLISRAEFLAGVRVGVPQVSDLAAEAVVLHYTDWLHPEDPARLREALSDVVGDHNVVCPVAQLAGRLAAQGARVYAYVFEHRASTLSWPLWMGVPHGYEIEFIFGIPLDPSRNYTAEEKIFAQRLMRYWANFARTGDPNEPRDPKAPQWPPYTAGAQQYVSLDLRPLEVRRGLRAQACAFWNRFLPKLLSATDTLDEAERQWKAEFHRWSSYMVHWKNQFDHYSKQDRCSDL

| SMILES | IC50 (acetylcholinesterase; [2]) [µM] | % of animals with scopolamine Induced Memory Deficit Reversed ([1]; dose 0.31 mg/kg body weight) [%] | other results |
| --- | --- | --- | --- |
| Nc1c2c(nc3ccccc13)CCS2 [9-amino-2,3-dihydrothieno[3,2-b]quinoline] | 0.44 | – | – |
| Nc1c2c(nc3cc(C(F)(F)F)ccc13)CCSC2 [10-amino-3,4-dihydro-7-trifluoromethyl-1H-thiopyrano[4,3-b]quinoline] | – | – | IC50 (acetylcholinesterase): 0.64 µM |
| Nc1c2c(nc3ccccc13)CCSC2 [10-amino-3,4-dihydro-1H-thiopyrano[4,3-b]quinoline] | 0.97 | – | % of animals with scopolamine Induced Memory Deficit Reversed ([1]; dose 0.16 mg/kg body weight): 27% |
| Cc1ccc2c(N)c3c(nc2c1)CCSC3 [10-amino-3,4-dihydro-7-methyl-1H-thiopyrano[4,3-b]quinoline] | 0.19 | – | – |
| CNC(=O)Oc1ccc2c(c1)[C@]1(C)CCN(C)[C@@H]1N2C [Physostigmine, reference compound] | – | 20 | – |
| Nc1c2c(nc3cc(F)ccc13)CCSC2 [10-amino-3,4-dihydro-7-fluoro-1H-thiopyrano [4,3-b]quinoline] | 0.15 | 67 | – |
| Nc1c2c(nc3ccccc13)CSC2 [9-Amino-1,3-dihydrothieno[3,4-b]quinoline] | 0.047 | 14 | – |
| Nc1c2c(nc3ccccc13)CCOC2 [10-Amino-3,4-dihydro-1H-pyrano[4,3-b]quinoline fumarate] | 0.2 | – | – |
| c1ccc(CNc2c3c(nc4ccccc24)CCSC3)cc1 [10-benzylamino-3,4-dihydro-1H-thiopyrano[4,3-b]quinoline hydrochloride] | – | – | IC50 (acetylcholinesterase): 3.9 µM |
